# Patent US9758492B2, “IDO inhibitors” (Bristol-Myers Squibb Company, priority 2013, dated 2017)
# pIC50: −log10 of the molar value.
# Target: IDO (Homo sapiens, UniProt P14902)
# Assay: LLE_IDO_ABS_DR (IDO assay)
# Sequence of IDO (P14902 whole entry): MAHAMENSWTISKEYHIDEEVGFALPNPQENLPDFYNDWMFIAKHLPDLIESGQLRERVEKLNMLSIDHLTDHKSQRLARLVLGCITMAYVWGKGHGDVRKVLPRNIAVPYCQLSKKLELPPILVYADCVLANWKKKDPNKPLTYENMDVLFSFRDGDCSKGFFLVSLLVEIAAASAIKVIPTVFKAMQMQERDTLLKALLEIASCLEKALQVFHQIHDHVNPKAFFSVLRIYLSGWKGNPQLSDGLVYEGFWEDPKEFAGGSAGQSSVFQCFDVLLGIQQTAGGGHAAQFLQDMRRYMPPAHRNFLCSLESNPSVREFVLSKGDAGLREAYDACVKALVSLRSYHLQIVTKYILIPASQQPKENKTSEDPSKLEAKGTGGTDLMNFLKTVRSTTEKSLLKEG
row,Structure (SMILES),pIC50
1,"Cc1ccc(NC(=O)Nc2cc(-c3ccccc3-c3nnn[nH]3)ccc2N(CC(C)C)CC(C)C)c(F)c1 [Example 264, 1-(4-(diisobutylamino)-2′-(1H-tetrazol-5-yl)-[1,1′-biphenyl]-3-yl)-3-(2-fluoro-4-methylphenyl)urea]",8.58
2,"Cc1ccc(NC(=O)Nc2cc(-c3cc(F)ccc3C(=O)O)ccc2N(CCC(F)(F)F)Cc2ccccc2)cc1 [Example 9, 4′-(Benzyl(3,3,3-trifluoropropyl)amino)-5-fluoro-3′-(3-(p-tolyl)ureido)-[1,1′-biphenyl]-2-carboxylic acid]",6.46
3,"C#CCN(CC(C)C)c1ccc(-c2cc(F)ccc2C(=O)O)cc1NC(=O)Nc1ccc(C)cc1 [Example 23, 5-Fluoro-4′-(isobutyl(prop-2-yn-1-yl)amino)-3′-(3-(p-tolyl)ureido)-[1,1′-biphenyl]-2-carboxylic acid]",6.35
4,"CC(C)CN(c1ccc(-c2ccccc2C(=O)O)cc1NC(=O)Nc1ccc(OC(F)(F)F)cc1)C1CCC(F)(F)CC1 [Example 511, 4′-((4,4-Difluorocyclohexyl)(isobutyl)amino)-3′-(3-(4-(trifluoromethoxy)phenyl)ureido)-[1,1′-biphenyl]-2-carboxylic acid]",8.09
5,"Cc1ccc(NC(=O)Nc2cc(-c3ccccc3-c3nnn[nH]3)ccc2N(C)C2CCCCCC2)cc1 [Example 79, 1-(4-(cycloheptyl(methyl)amino)-2′-(1H-tetrazol-5-yl)biphenyl-3-yl)-3-p-tolylurea]",8.74
6,"Cc1ccc(NC(=O)Nc2cc(-c3cc(F)ccc3C(=O)O)ccc2N(CCC(F)(F)F)Cc2cccc(Cl)c2)cc1 [Example 12, 4′-((3-Chlorobenzyl)(3,3,3-trifluoropropyl)amino)-5-fluoro-3′-(3-(p-tolyl)ureido)-[1,1′-biphenyl]-2-carboxylic acid]",6.66
7,Cc1ccc(NC(=O)Nc2cc(-c3ccccc3-c3nnn[nH]3)ccc2N(CC(C)C)CC2CC(F)(F)C2)cc1 [Example 381],6.96
8,"Cc1ccc(NC(=O)Nc2cc(-c3cc(F)ccc3C(=O)O)ccc2N(CCC(F)(F)F)Cc2ccccc2Cl)cc1 [Example 18, 4′-((2-Chlorobenzyl)(3,3,3-trifluoropropyl)amino)-5-fluoro-3′-(3-(p-tolyl)ureido)-[1,1′-biphenyl]-2-carboxylic acid]",6.20
9,"O=C(Nc1cc(-c2ccccc2-c2nnn[nH]2)ccc1N(CCC(F)(F)F)Cc1ccccn1)Nc1ccccc1C(F)(F)F [Example 345, 1-(4-((pyridin-2-ylmethyl)(3,3,3-trifluoropropyl)amino)-2′-(1H-tetrazol-5-yl)-[1,1′-biphenyl]-3-yl)-3-(2-(trifluoromethyl)phenyl)urea]",6.09
10,"Cc1cc(NC(=O)Nc2cc(-c3ccccc3-c3nnn[nH]3)ccc2N2CCCc3ccccc32)on1 [Example 366, 1-(4-(3,4-Dihydroquinolin-1(2H)-yl)-2′-(1H-tetrazol-5-yl)-[1,1′-biphenyl]-3-yl)-3-(3-methylisoxazol-5-yl)urea]",5.30
11,"[2H]C([2H])(C(C)C)N(c1ccc(-c2ccccc2C(=O)O)cc1NC(=O)Nc1ccc(C)cc1)C1CCCCC1 [Example 30, 4′-(Cyclohexyl(1,1-dideutero-2-methylpropyl)amino)-3′-(3-p-tolylureido)biphenyl-2-carboxylic acid]",8.28
12,"Cc1ccc(NC(=O)Nc2cc(-c3ccccc3-c3nnn[nH]3)ccc2N(CC(C)C)C2CCCC2)cc1 [Example 174, 1-(4-(cyclopentyl (isobutyl)amino)-2′-(1H-tetrazol-5-yl)biphenyl-3-yl)-3-p-tolylurea]",8.00
13,"Cc1ccc(NC(=O)Nc2cc(-c3ccccc3-c3nnn[nH]3)ccc2N(C)CC(C)C)cc1 [Example 179, 1-(4-(isobutyl(methyl)amino)-2′-(1H-tetrazol-5-yl)-[1,1′-biphenyl]-3-yl)-3-(p-tolyl)urea]",7.30
14,"Cc1ccc(NC(=O)Nc2cc(-c3ccccc3C(=O)O)ccc2N(CC(C)C)C(C)C)cc1 [Example 148, 4′-(isobutyl(isopropyl)amino)-3′-(3-p-tolylureido)biphenyl-2-carboxylic acid]",7.40
15,"CCCN(c1ccc(-c2ccccc2C(=O)O)cc1NC(=O)Nc1ccc(C)cc1)C1CCCCC1 [Example 86, 4′-(cyclohexyl(propyl)amino)-3′-(3-p-tolylureido)biphenyl-2-carboxylic acid]",8.38
16,"Cc1ccc(NC(=O)Nc2cc(-c3ccccc3NS(=O)(=O)CC(F)(F)F)ccc2N(CC(C)C)CC(C)C)cc1 [Example 84, N-(4′-(diisobutylamino)-3′-(3-p-tolylureido)biphenyl-2-yl)-2,2,2-trifluoroethane-sulfonamide]",5.68
17,"CC(C)CN(CC(C)C)c1ccc(-c2ccc(F)cc2C(=O)O)cc1NC(=O)Nc1ccccc1Cl [Example 68, 3′-(3-(2-chlorophenyl)ureido)-4′-(diisobutylamino)-4-fluorobiphenyl-2-carboxylic acid]",6.25
18,"O=C(Nc1ccc(C2CC2)c(F)c1)Nc1cc(-c2ccccc2-c2nnn[nH]2)ccc1N(CCc1ccccc1)CCC(F)(F)F [Example 296, 1-(4-Cyclopropyl-3-fluorophenyl)-3-(4-(phenethyl(3,3,3-trifluoropropyl)amino)-2′-(1H-tetrazol-5-yl)biphenyl-3-yl)urea]",6.74

row,Structure (SMILES),pIC50
1,"C#CCOc1ccccc1NC(=O)Nc1cc(-c2ccccc2-c2nnn[nH]2)ccc1N(CC(C)C)CC(C)C [Example 269, 1-(4-(diisobutylamino)-2′-(2H-tetrazol-5-yl)-[1,1′-biphenyl]-3-yl)-3-(2-(prop-2-yn-1-yloxy)phenyl)urea]",6.60
2,"CC(C)CN(CC(C)C)c1ccc(-c2ccccc2-c2nnn[nH]2)cc1NC(=O)Nc1cccc2c1CCC2 [Example 276, 1-(2,3-dihydro-1H-inden-4-yl)-3-(4-(diisobutylamino)-2′-(1H-tetrazol-5-yl)-[1,1′-biphenyl]-3-yl)urea]",6.11
3,"Cc1ccc(NC(=O)Nc2cc(-c3ccccc3-c3nnn[nH]3)ccc2N(C)C2CCC(F)(F)CC2)cc1 [Example 106, 1-(4-((4,4-difluoro-cyclohexyl) (methyl)amino)-2′-(1H-tetrazol-5-yl)biphenyl-3-yl)-3-p-tolylurea]",8.06
4,"[2H]C([2H])(C(C)C)N(c1ccc(-c2ccccc2-c2nnn[nH]2)cc1NC(=O)Nc1ccccc1F)C1CCCCC1 [Example 32, 1-(4-(Cyclohexyl(1,1-dideutero-2-methylpropyl)amino)-2′-(1H-tetrazol-5-yl)biphenyl-3-yl)-3-(2-fluorophenyl)urea]",8.60
5,"Cc1ccc(NC(=O)Nc2cc(-c3ccccc3C(=O)O)ccc2N(CCC(C)C(F)(F)F)CC(C)C)cc1 (centres unmarked) [Example 205, 4′-(isobutyl (4,4,4-trifluoro-3-methylbutyl)amino)-3′-(3-(p-tolyl)ureido)-[1,1′-biphenyl]-2-carboxylic acid]",7.70
6,"Cc1ccc(NC(=O)Nc2cc(-c3ccccc3C(=O)O)ccc2Nc2ccccc2C(C)(C)C)cc1 [Example 206, 4′((2-(tert-butyl)phenyl)amino)-3′-(3-(p-tolyl)ureido)-[1,1′-biphenyl]-2-carboxylic acid]",6.22
7,"CC(C)CN(CC(C)C)c1ccc(-c2ccccc2-c2nnn[nH]2)cc1NC(=O)Nc1ccc(F)c(S(C)(=O)=O)c1 [Example 279, 1-(4-(diisobutylamino)-2′-(1H-tetrazol-5-yl)-[1,1′-biphenyl]-3-yl)-3-(4-fluoro-3-(methylsulfonyl)phenyl) urea]",5.30
8,"CC(C)CN(CC(C)C)c1ccc(-c2ccccc2-c2nnn[nH]2)cc1NC(=O)Nc1cccc(N=[N+]=[N-])c1 [Example 257, 1-(3-azidophenyl)-3-(4-(diisobutylamino)-2′-(1H-tetrazol-5-yl)-[1,1′-biphenyl]-3-yl)urea]",8.56
9,"CC(C)CN(CC(C)C)c1ccc(-c2ccccc2-c2nnn[nH]2)cc1NC(=O)Nc1ccc(F)cc1F [Example 137, 1-(2,4-difluorophenyl)-3-(4-(diisobutylamino)-2′-(1H-tetrazol-5-yl)biphenyl-3-yl)urea]",8.28
10,"CCCN(c1ccc(-c2cc(F)ccc2C(=O)O)cc1NC(=O)Nc1ccc(C)cc1)C1CCCC1 [Example 166, 4′-(cyclopentyl(propyl)amino)-5-fluoro-3′-(3-p-tolylureido) biphenyl-2-carboxylic acid]",7.70
11,"CC(C)CN(CC(C)C)c1ccc(-c2ccccc2-c2nnn[nH]2)cc1NC(=O)NC(C)(C)CC(C)(C)C [Example 288, 1-(4-(Diisobutylamino)-2′-(1H-tetrazol-5-yl)-[1,1′-biphenyl]-3-yl)-3-(2,4,4-trimethylpentan-2-yl)urea]",5.04
12,"CC(C)CN(CCC1CC1)c1ccc(-c2ccccc2C(=O)O)cc1NC(=O)Nc1ccccc1F [Example 134, 4′-((2-cyclopropylethyl) (isobutyl)amino)-3′-(3-(2-fluorophenyl)ureido)biphenyl-2-carboxylic acid]",7.52
13,"CCC1CCCCN1c1ccc(-c2ccccc2C(=O)O)cc1NC(=O)Nc1ccc(C)cc1 (centres unmarked) [Example 107, 4′-(2-ethylpiperidin-1-yl)-3′-(3-p-tolylureido)biphenyl-2-carboxylic acid]",5.73
14,"COc1ccc(-c2ccc(N(CCC(F)(F)F)CC3CC3)c(NC(=O)Nc3ccc(C)cc3)c2)cc1C(=O)O [Example 65, 4′-((cyclopropylmethyl) (3,3,3-trifluoropropyl)amino)-4-methoxy-3′-(3-p-tolylureido) biphenyl-3-carboxylic acid]",5.43
15,"COc1ccc(C(=O)O)c(-c2ccc(N(CC(C)C)CC(C)C)c(NC(=O)Nc3ccc(F)cc3F)c2)c1 [Example 160, 3′-(3-(2,4-difluorophenyl)ureido)-4′-(diisobutylamino)-5-methoxybiphenyl-2-carboxylic acid]",6.72
16,"COc1cc(NC(=O)Nc2cc(-c3ccccc3-c3nnn[nH]3)ccc2N(CC(C)C)CC(C)C)ccc1C#N [Example 261, 1-(4-cyano-3-methoxyphenyl)-3-(4-(diisobutylamino)-2′-(1H-tetrazol-5-yl)-[1,1′-biphenyl]-3-yl)urea]",5.37
17,"Cc1ccc(NC(=O)Nc2cc(-c3ccccc3-c3nnn[nH]3)ccc2N(CC(C)C)C2CCCCC2)cc1 [Example 118, 1-(4-(cyclohexyl(isobutyl)amino)-2′-(1H-tetrazol-5-yl)biphenyl-3-yl)-3-p-tolylurea]",8.32
